{"source": "paper PMC4154947", "about": "“Polyisoprenylated methylated protein methyl esterase as a putative drug target for androgen-insensitive prostate cancer” (ecancermedicalscience, 2014)", "key": {"[1]": {"molecular_target": "T1, Polyisoprenylated methylated protein methyl esterase (PMPMEase; human carboxylesterase 1, hCE1) (Homo sapiens, UniProt P23141)", "T1 construct": "gene CES1", "T1 sequence (P23141 18-567)": "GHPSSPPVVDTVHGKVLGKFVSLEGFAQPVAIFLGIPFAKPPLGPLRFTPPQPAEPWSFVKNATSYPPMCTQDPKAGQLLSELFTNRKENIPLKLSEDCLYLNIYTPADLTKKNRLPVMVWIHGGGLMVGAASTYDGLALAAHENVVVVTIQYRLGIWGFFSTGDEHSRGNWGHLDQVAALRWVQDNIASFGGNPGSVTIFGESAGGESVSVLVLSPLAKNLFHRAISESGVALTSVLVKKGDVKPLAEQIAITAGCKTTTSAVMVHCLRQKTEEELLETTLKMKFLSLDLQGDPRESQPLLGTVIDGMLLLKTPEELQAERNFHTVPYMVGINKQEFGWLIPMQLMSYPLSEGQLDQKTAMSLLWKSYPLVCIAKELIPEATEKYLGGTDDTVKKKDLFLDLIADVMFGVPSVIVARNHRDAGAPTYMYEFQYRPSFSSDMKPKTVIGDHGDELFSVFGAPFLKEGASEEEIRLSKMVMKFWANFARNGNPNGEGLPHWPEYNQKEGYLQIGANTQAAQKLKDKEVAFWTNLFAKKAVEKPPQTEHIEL", "assay": "HPLC assay of RD-PNB hydrolysis in prostate cancer cell lysates (PC-3 value)", "format": "biochemical"}, "[2]": {"molecular_target": "T1, Polyisoprenylated methylated protein methyl esterase (PMPMEase; human carboxylesterase 1, hCE1)", "assay": "HPLC-UV detection of substrate hydrolysis by prostate cell lysates", "format": "cell-based"}}}
{"smiles": "CC(C)=CCC/C(C)=C/CC/C(C)=C/CSCCS(=O)(=O)F", "note": "[L-28, 2-trans, trans-farnesylthioethanesulfonyl fluoride]", "values": [{"measurement": "IC50", "setting": "[1]", "value": 3, "unit": "µM"}]}
{"smiles": "COC(=O)[C@H](CSC/C=C(\\C)CC/C=C(\\C)CCC=C(C)C)NC(=O)c1ccc([N+](=O)[O-])cc1", "note": "[RD-PNB, N-(4-nitrobenzoyl)-S-trans, trans-farnesyl-L-cysteine methyl ester]", "values": [{"measurement": "HPLC-UV detection of substrate hydrolysis by prostate cell lysates", "setting": "[2]", "value": "Incubation of the specific PMPMEase substrate, RD-PNB, with lysates from the respective cell lines resulted in the hydrolysis"}]}
